Assay results published in patent publication US8394787B2, “7-aza-spiro[3.5]nonane-7-carboxylate derivatives, preparation thereof and therapeutic use thereof” (Sanofi, priority 2009, dated 2013).

How the values were obtained:
[1] = molecular target: T1, enzyme FAAH (Fatty Acid Amide Hydrolase) (Mus musculus, UniProt O08914); test: FAAH radio-enzymatic test, hydrolysis of [1-3H ethanolamine] anandamide (protocol 1); assay type: biochemical; conditions: mouse brain membrane homogenate, anandamide 10 μM, 20 mins preincubation at 25° C., read-out: IC50 (concentration inhibiting 50% of the control enzymatic activity of FAAH)
T1 construct: The membrane homogenates are prepared extemporaneously by homogenizing the tissues; from tissue; host or cells: mouse brain (minus the cerebellum), homogenate
T1 sequence (O08914 1-579): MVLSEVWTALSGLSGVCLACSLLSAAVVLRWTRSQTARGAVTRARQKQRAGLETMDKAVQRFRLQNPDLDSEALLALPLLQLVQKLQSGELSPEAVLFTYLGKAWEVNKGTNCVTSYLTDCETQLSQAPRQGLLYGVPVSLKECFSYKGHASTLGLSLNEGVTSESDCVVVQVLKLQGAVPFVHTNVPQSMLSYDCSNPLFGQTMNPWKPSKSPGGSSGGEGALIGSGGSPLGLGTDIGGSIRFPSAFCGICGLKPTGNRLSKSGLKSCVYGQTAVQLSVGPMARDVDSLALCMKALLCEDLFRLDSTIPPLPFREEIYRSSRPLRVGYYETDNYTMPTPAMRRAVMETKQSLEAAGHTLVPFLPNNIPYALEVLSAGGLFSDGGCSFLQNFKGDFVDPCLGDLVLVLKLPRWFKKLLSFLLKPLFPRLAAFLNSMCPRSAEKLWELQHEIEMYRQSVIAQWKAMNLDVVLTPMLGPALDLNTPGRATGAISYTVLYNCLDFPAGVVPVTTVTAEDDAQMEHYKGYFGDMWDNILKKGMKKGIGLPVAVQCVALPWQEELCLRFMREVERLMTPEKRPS
Protocol: (§1) The compounds of the invention were subjected to pharmacological tests to determine their inhibitory effect on the enzyme FAAH (Fatty Acid Amide Hydrolase).
Thus, mouse brains (minus the cerebellum) are removed and stored at −80° C. The membrane homogenates are prepared extemporaneously by homogenizing the tissues using a Precellys® machine in the reaction buffer (10 mM Tris-HCl, pH=8, 150 mM NaCl and 1 mM ethylenediaminetetraacetic acid (EDTA)). The enzymatic reaction is performed in 96-well Multiscreen filtration plates in a final volume of 70 μl. Reaction buffer supplemented with fatty acid-free bovine serum albumin (BSA, 1 mg/ml) is used for the enzymatic reaction and the dilution of the compounds and the [1-^3H ethanol-amine] anandamide. The reaction buffer containing BSA (43 μl/well), the diluted test compounds at different concentrations (7 μl/well containing 1% DMSO) and the membrane preparation (10 μl/well, i.e. 200 μg of tissue per test) are successively added to the wells. After preincubation of the compounds with the enzyme at 25° C. for 20 mins, the reaction is started by adding [1-^3H ethanolamine] anandamide. (Specific activity 15-20 Ci/mmol) diluted with cold anandamide (10 μl/well, final concentration 10 μM, 0.01 μCi per test). After incubation for 20 mins at 25° C., the enzymatic reaction is stopped by addition of a […] solution of active charcoal prepared in 1.5M NaCl and 0.5M HCl buffer (50 μl/well). The mixture is stirred for 10 mins and the aqueous phase containing the [1-^3H]ethanolamine is then recovered by filtration under vacuum and counted by liquid scintillation.

[2] = molecular target: T1, enzyme FAAH (Fatty Acid Amide Hydrolase); test: FAAH fluorescence enzymatic test, hydrolysis of AAMC (protocol 2); assay type: biochemical; conditions: mouse brain homogenate, AAMC 10 μM, 20 mins preincubation at 25° C., 40 mins at 37° C., read-out: IC50 (concentration inhibiting 50% of the control enzymatic activity of FAAH)
Protocol: as §1
Thus, mouse brains (minus the cerebellum) are removed and stored at −80° C. The brain homogenates are prepared extemporaneously by homogenizing the tissues using a Precellys® machine in the reaction buffer (10 mM Tris-HCl, pH=8, 150 mM NaCl and 1 mM ethylenediamine-tetraacetic acid (EDTA)). The enzymatic reaction is performed in black polystyrene 384-well plates in a final volume of 50 μl. Reaction buffer supplemented with fatty acid-free bovine serum albumin (BSA, 1 mg/ml) is used for the enzymatic reaction, dilution of the compounds and dilution of the AAMC. The reaction buffer containing BSA (25 μl/well), the diluted test compounds at different concentrations (5 μl/well containing 1% DMSO) and the membrane preparation (10 μl/well, i.e. 200 μg of tissue per test) are successively added to the wells. After preincubation of the compounds with the enzyme for 20 mins at 25° C., the reaction is started by addition of 10 μl of substrate per well (AAMC, final concentration 10 μM). After incubation for 40 mins at 37° C., the aminomethyl coumarin (AMC) produced is measured by fluorescent counting (Envision plate reader).

male OF1 mice = test: test of analgesia: PBQ-induced abdominal stretching; assay type: in vivo, mouse; conditions: 30 mg/kg p.o. at 120 mins before PBQ
Protocol: The in vivo activity of the compounds of the invention was evaluated in a test of analgesia.
Thus, the intraperitoneal (i.p.) administration of PBQ (phenylbenzoquinone, 2 mg/kg in 0.9% sodium chloride solution containing 5% ethanol) to male OF1 mice weighing 25 to 30 g causes abdominal stretching, on average 30 torsions or contractions during the period of 5 to 15 mins after injection. The test compounds are administered orally (p.o.) or intraperitoneally (i.p.) suspended in Tween 80 at 0.5%, 60 mins or 120 mins before the administration of PBQ. Under these conditions, the most powerful compounds reduce by 35% to 80% the number of stretches induced by the PBQ, in a dosage range lying between 1 and 30 mg/kg. For example, compound 25 of Table 1 reduces by 50% the number of stretches induced by the PBQ, at a dose of 30 mg/kg p.o. at 120 mins.

| Structure (SMILES) | IC50 [1] | melting point | IC50 [2] | reduction of the number of stretches induced by the PBQ (male OF1 mice) |
| --- | --- | --- | --- | --- |
| CNC(=O)c1cc(COC(=O)N2CCC3(CC(Oc4ccc(-c5ccc(F)cc5)cc4)C3)C2)on1 (single isomer, unassigned) [Compound 29, 3-methylcarbamoyl-isoxazol-5-ylmethyl 2-(4′-fluorobiphenyl-4-yloxy)-6-aza-spiro[3.4]octane-6-carboxylate] | 5.3 nM | 135 to 137 °C | – | – |
| CNC(=O)c1cc(COC(=O)N2CCC3(CC(Oc4ccc(-c5ccc(F)cc5)cc4)C3)C2)on1 (single isomer, unassigned) [Compound 32, 3-methylcarbamoyl-isoxazol-5-ylmethyl 2-(4′-fluorobiphenyl-4-yloxy)-6-aza-spiro[3.4]octane-6-carboxylate] | 3 nM | 149 to 151 °C | – | – |
| CNC(=O)c1cc(COC(=O)N2CCC3(CC(Oc4ccc(-c5ccc(F)cc5)cc4)C3)C2)on1 (single isomer, unassigned) [Compound 33, 3-methylcarbamoyl-isoxazol-5-ylmethyl 2-(4′-fluorobiphenyl-4-yloxy)-6-aza-spiro[3.4]octane-6-carboxylate] | 19 nM | 150 to 152 °C | – | – |
| CNC(=O)c1cc(COC(=O)N2CCC3(CC2)CC(Oc2cccc(-c4ccc(F)cc4)c2)C3)on1 [Compound 7, 3-methylcarbamoyl-isoxazol-5-ylmethyl 2-(4′-fluorobiphenyl-3-yloxy)-7-aza-spiro[3.5]nonane-7-carboxylate] | 19 nM | – | – | – |
| CNC(=O)c1cc(COC(=O)N2CCC3(CC2)CC(Oc2ccc(-c4ccc(F)cc4)cc2)C3)on1 [Compound 19, 3-methylcarbamoyl-isoxazol-5-ylmethyl 2-(4′-fluorobiphenyl-4-yloxy)-7-aza-spiro[3.5]nonane-7-carboxylate] | – | 174 to 176 °C | 1.7 nM | – |
| CNC(=O)c1cc(COC(=O)N2CC3(CC(Oc4ccc(-c5ccc(F)cc5)cc4)C3)C2)on1 [Compound 25, 3-methylcarbamoyl-isoxazol-5-ylmethyl 6-(4′-fluorobiphenyl-4-yloxy)-2-aza-spiro[3.3]heptane-2-carboxylate] | – | 163 to 165 °C | 0.46 nM | 50% |
